In patent US20210388320A1, “DIFFERENTIATION-INDUCED CELL POPULATION FROM WHICH […] CELLS HAVE BEEN REMOVED, USE OF SAME, AND METHOD FOR PRODUCING SAME” (priority 2014, published 2021):

Key:
[1] = test system: human iPS cell strain 253G1; experiment: Microscope observation and crystal violet staining after JQ1 addition (Example 5); format: cell-based; conditions: 0.2 μM or more of JQ1, 96 hours later
Procedure: (§1) Human iPS cell strain 253G1 was seeded in a 12-well plate (cell density: 20% confluency). Human fibroblasts (NHDF) were seeded in a 12-well plate (cell density: 50% confluency).
(§2) Thereafter, microscope observation was performed 96 hours later, and crystal violet staining was carried out to visualize the cells (FIG. 9).

[2] = test system: normal human dermal fibroblasts (NHDF); experiment: as above; format: cell-based; conditions: JQ1 up to 10 μM, 96 hours
Procedure: as §1, §2

[3] = test system: TRA-1-60 positive cells in iPS-CM derived from human iPS cell strain MYH-GIP4; experiment: TRA-1-60 positive rate in iPS-CM treated with JQ1 (Example 7); format: cell-based
Procedure: After differentiation of undifferentiated pluripotent stem cells is induced, a cell dissociation reagent, such as Accutase, is applied to about 1×10^5 to 5×10^5 differentiated cells at 37° C. for 5 minutes, and differentiated cells are dissociated and collected by centrifugation. The differentiated cells are suspended in […] of PBS, and an anti-human TRA-1-60 antibody and an isotype control antibody, both of which are fluorescently labeled, are each added. Then, the resultants are each reacted at 4° C. for 20 minutes in a dark place. After the differentiated cells are washed with PBS and collected by centrifugation, they are each suspended in […] of PBS, passed through a cell strainer, and then collected in FACS tubes. In flow cytometry, fluorescent emission is detected by a detector corresponding to labeled fluorescence, and quantified. Fractions stained with the isotype control antibody are defined as negative fractions, whereas fractions with a higher fluorescence intensity are defined as positive fractions. Among fractions stained with the anti-human TRA-1-60 antibody, the ratio belonging to the positive fractions is expressed as a percentage.
iPS-CM derived from human iPS cell strain MYH-GIP4 was seeded in a 12-well plate (cell density: 90% confluency). […] Thereafter, the TRA-1-60 positive rate was quantified 96 hours after addition. […]

[4] = test system: human iPS cell strain 253G1; experiment: Cell proliferation assay (CCK-8 assay) with JQ1 (Example 6); format: cell-based; conditions: 0.2 μM or more of JQ1, 96 hours later
Procedure: Human iPS cell strain 253G1 was seeded in a 12-well plate (cell density: 20% confluency).
Thereafter, cell proliferation assay was performed 96 hours after addition (FIG. 10).

[5] = test system: Lin28 expression in iPS-CM derived from human iPS cell strain 253G1; experiment: Lin28 expression by quantitative PCR in iPS-CM treated with BV (Example 4); format: cell-based
Procedure: This method is targeted for human iPS cell-derived cardiomyocytes (iPS-CM). iPS-CM is considered to contain tumorigenic undifferentiated cells, in addition to cardiomyocytes.
The method for inducing differentiation into cardiomyocytes was performed according to the following document: Matsuura K, et al. Creation of human cardiac cell sheets using pluripotent stem cells. Biochem Biophys Res Commun, 2012, and 425(2) pp. 321-7. iPS-CM derived from human iPS cell strain 253G1 was seeded in a 12-well plate (cell density: 90% confluency). Forty-eight hours after seeding, 0, 5, and 10 μg/ml of BV was added to each well (the agent-containing medium was exchanged every 24 hours). Thereafter, mRNA was extracted 72 hours and 96 hours after addition. Lin28 expression levels were quantified by quantitative PCR.

[6] = test system: human iPS cell strains (253G1, MYH-GIP4, and 201B7); experiment: Cell proliferation assay (CCK-8 assay) with BV (Example 3); format: cell-based; conditions: 72 hours after treatment with 50 μg/ml BV, all the human iPS cells
Procedure: (§3) In order to clarify how the number of human iPS cells changed with various BV concentrations and BV treatment times, BV was added in vitro to human iPS cells, cell proliferation assay (CCK-8 assay), which reflects the number of cells, was performed, and viable cells were evaluated quantitatively.
(§4) Three human iPS cell strains (253G1, MYH-GIP4, and 201B7) and NHDF were each seeded in a 12-well plate (cell density: 20% confluency). However, the cell density of NHDF was set to 50% confluency.
(§5) Forty-eight hours after seeding, 0, 0.1, 0.25, 0.5, 1, 2.5, 5,10, 25, and 50 μg/ml of BV was added to each well (the agent-containing medium was exchanged every 24 hours). Thereafter, cell proliferation assay was performed 72 hours after addition.

NHDF [7] = experiment: as above; format: cell-based, human; conditions: 0.1-50 μg/ml BV, 72 hours
Procedure: as §3, §4, §5

[8] = test system: normal human dermal fibroblasts (NHDF); experiment: Microscope observation of cell death after BV addition, normal fibroblasts (Example 1); format: cell-based; conditions: 5 μg/ml BV, 72 hours after addition
Procedure: Similarly, in order to examine the influence of BV on normal human dermal fibroblasts (NHDF), the same experiment as in Example 1 was conducted.
Human fibroblasts (NHDF) were seeded in a 12-well plate (cell density: 50% confluency). Forty-eight hours after seeding, 0, 0.05, and 5 μg/ml of BV was added to each well (the agent-containing medium was exchanged every 24 hours). Thereafter, microscope observation was performed every 24 hours.

NHDF [9] = experiment: Cell proliferation assay (CCK-8 assay) with BV (Example 2); format: cell-based, human; conditions: 0-50 μg/ml BV, 24-72 hours
Procedure: as §3
Three human iPS cell strains (1231A3, MYH-GIP4, and 253G1) and NHDF were each seeded in a 12-well plate (cell density: 20% confluency). However, the cell density of NHDF was set to 50% confluency.
Forty-eight hours after seeding, 0, 5, 25, and 50 μg/ml of BV was added to each well (the agent-containing medium was exchanged every 24 hours). Thereafter, cell proliferation assay was performed 24 hours, 48 hours, and 72 hours after addition.

[10] = test system: Human iPS cell strain MYH-GIP4; experiment: Microscope observation of cell death after BV addition (Example 1); format: cell-based; conditions: 5 μg/ml BV, 48 to 72 hours later
Procedure: Human iPS cell strain MYH-GIP4 was seeded in a 12-well plate (cell density: 20% confluency). Forty-eight hours after seeding, 0, 0.05, and 5 μg/ml of an anti-CD30 antibody-binding agent (general name: Brentuximab vedotin, abbreviated as “BV”) (trade name: Adcetris (registered trademark)) was added to each well (the agent-containing medium was exchanged every 24 hours). Thereafter, microscope observation was performed every 24 hours. Since Adcetris (registered trademark) contains additives, in addition to BV, numerical values converted from the net weight of BV were described (i.e., “0, 0.05, and 5 μg/ml as BY”).

| Compound | cell death (microscope observation, crystal violet staining) [1] | cell death (microscope observation, crystal violet staining) [2] | TRA-1-60 positive rate ([3]; 1 μM JQ1, 96 hours after addition) [%] | TRA-1-60 positive rate ([3]; 5 μM JQ1, 96 hours after addition) [%] | cell proliferation rate [4] [%] | expression of undifferentiated marker Lin28, of the control group (BV: 0 μg/ml) ([5]; 72-hour treatment, BV 5 and 10 μg/ml) | Lin28 expression level, pure human iPS cells regarded as 100% ([5]; 72nd hour, BV-added groups) | cell proliferation [6] [%] | effect of BV on cell proliferation (NHDF [7]) | induction of cell death (macroscopic observation) [8] | effect of BV on number of cells (NHDF [9]) | cell death (microscope observation) [10] |
| --- | --- | --- | --- | --- | --- | --- | --- | --- | --- | --- | --- | --- |
| Cc1sc2c(c1C)C(c1ccc(Cl)cc1)=N[C@@H](CC(=O)OC(C)(C)C)c1nnc(C)n1-2 [JQ1] | complete cell death was induced | cell death was not observed | 0.2 | 0.1 | ≤ 10 | – | – | – | – | – | – | – |
| Brentuximab vedotin [BV] | – | – | – | – | – | about 50% | about 0.3% | ≤ 20 | hardly affected | induction of cell death was not observed macroscopically | hardly affected | cell death was partially induced |
